Assay results reported in ChEMBL document CHEMBL1136905, “Substituted isoxazole analogs of farnesoid X receptor (FXR) agonist GW4064” (Bioorg Med Chem Lett, 2009).
pEC50: −log10 of the molar value.

What was measured:
Bile acid receptor [1] = target: T1, Bile acid receptor (Homo sapiens, UniProt Q96RI1); test: Agonist activity at human FXR assessed as SRC1 coactivator peptide recruitment by cell free FRET assay; format: functional
T1 sequence (Q96RI1 whole entry): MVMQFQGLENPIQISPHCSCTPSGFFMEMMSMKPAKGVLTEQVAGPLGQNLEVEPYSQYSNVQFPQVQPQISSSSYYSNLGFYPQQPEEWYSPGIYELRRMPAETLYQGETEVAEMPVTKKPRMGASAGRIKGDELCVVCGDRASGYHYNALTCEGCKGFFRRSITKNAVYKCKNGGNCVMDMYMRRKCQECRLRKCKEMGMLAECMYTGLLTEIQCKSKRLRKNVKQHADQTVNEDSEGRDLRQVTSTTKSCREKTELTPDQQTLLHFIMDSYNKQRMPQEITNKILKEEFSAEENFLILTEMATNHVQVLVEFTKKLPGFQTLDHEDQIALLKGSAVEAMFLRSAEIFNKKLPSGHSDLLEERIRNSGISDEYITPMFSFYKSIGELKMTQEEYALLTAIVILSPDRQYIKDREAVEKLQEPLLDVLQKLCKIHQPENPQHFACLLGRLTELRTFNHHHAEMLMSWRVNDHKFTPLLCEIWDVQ

[2] = target: T2, Bile acid receptor (Homo sapiens) (UniProt Q96RI1); test: Agonist activity at human FXR transfected in african green monkey CV1 cells by luciferase reporter gene transient transfection assay relative to GW-4064; format: functional, cell-based; conditions: CV-1
T2 sequence (whole entry): T1 sequence (Q96RI1 whole entry)

Bile acid receptor [3] = target: T1, Bile acid receptor; test: Agonist activity at human FXR assessed as SRC1 peptide interaction with receptor ligand binding domain by FRET assay
[4] = target: T2, Bile acid receptor (Homo sapiens); test: Agonist activity at human FXR assessed as SRC1 peptide interaction with receptor ligand binding domain by FRET assay relative to GW-4064
[5] = Volume of distribution at steady state in iv dosed rat; format: ADME, organism-based; conditions: in vivo, read-out: Vdss
[6] = Total clearance in iv dosed rat; format: ADME, organism-based; conditions: in vivo
[7] = Terminal half life in iv dosed rat; format: ADME, organism-based; conditions: in vivo, read-out: beta t1/2
Bile acid receptor [8] = target: T1, Bile acid receptor; test: Agonist activity at human FXR transfected in african green monkey CV1 cells by luciferase reporter gene transient transfection assay; format: functional, cell-based, CV-1
[9] = Oral bioavailability in rat; format: ADME, organism-based; conditions: in vivo

Compound	pEC50 (Bile acid receptor [1])	%max [2]	pEC50 (Bile acid receptor [3])	%max [4]	Vd [5]	clearance [6]	half-life [7]	pEC50 (Bile acid receptor [8])	bioavailability [9]
CC(C)c1onc(-c2c(Cl)cncc2Cl)c1COc1ccc(/C=C/c2cccc(C(=O)O)c2)c(Cl)c1	–	88%	6.82	97%	1.1 L/kg	48 mL/min/kg	0.867 h	7.28	7.8%
CCC(CC)c1onc(-c2c(Cl)cccc2Cl)c1COc1ccc(/C=C/c2cccc(C(=O)O)c2)c(Cl)c1	6.55	71%	5.66	82%	–	–	–	–	–
CC[C@H](C)c1onc(-c2c(Cl)cccc2Cl)c1COc1ccc(/C=C/c2cccc(C(=O)O)c2)c(Cl)c1	–	99%	6.72	96%	–	–	–	6.54	–
CC(C)c1onc(CCCc2ccccc2)c1COc1ccc(/C=C/c2cccc(C(=O)O)c2)c(Cl)c1	–	68%	5.36	44%	–	–	–	5.92	–
CC[C@@H](C)c1onc(-c2c(Cl)cccc2Cl)c1COc1ccc(/C=C/c2cccc(C(=O)O)c2)c(Cl)c1	–	105%	6.98	100%	–	–	–	7.03	–
CC(C)c1onc(COC(C)(C)C)c1COc1ccc(/C=C/c2cccc(C(=O)O)c2)c(Cl)c1	–	132%	6.18	77%	–	–	–	6.22	–
O=C(O)c1cccc(/C=C/c2ccc(OCc3c(-c4c(Cl)cccc4Cl)noc3C3CCC3)cc2Cl)c1	–	100%	6.39	67%	–	–	–	6.85	–
CC(C)c1onc(CS(=O)(=O)c2c(Cl)cccc2Cl)c1COc1ccc(/C=C/c2cccc(C(=O)O)c2)c(Cl)c1	–	68%	6.82	100%	–	–	–	6.41	–
CC(C)c1onc(CSc2c(Cl)cccc2Cl)c1COc1ccc(/C=C/c2cccc(C(=O)O)c2)c(Cl)c1	–	86%	7.29	110%	–	–	–	7.00	–
CC(C)c1onc(CO)c1COc1ccc(/C=C/c2cccc(C(=O)O)c2)c(Cl)c1	–	–	5.11	22%	–	–	–	< 5.00	–
CC(C)c1onc([C@H]2C[C@@H]2c2c(Cl)cccc2Cl)c1COc1ccc(/C=C/c2cccc(C(=O)O)c2)c(Cl)c1 (relative stereo)	< 5.00	–	5.70	38%	–	–	–	–	–
O=C(O)c1cccc(/C=C/c2ccc(OCc3c(-c4c(Cl)cccc4Cl)noc3C3CCCC3)cc2Cl)c1	–	75%	6.25	81%	–	–	–	6.62	–
CC(C)c1onc(CNc2c(Cl)cccc2Cl)c1COc1ccc(/C=C/c2cccc(C(=O)O)c2)c(Cl)c1	–	70%	7.14	104%	2.1 L/kg	16 mL/min/kg	2.33 h	6.85	2.6%
CC(C)c1onc(CCc2ccccc2)c1COc1ccc(/C=C/c2cccc(C(=O)O)c2)c(Cl)c1	–	110%	6.49	96%	–	–	–	7.03	–
CC(C)c1onc(-c2c(Cl)cccc2Cl)c1COc1ccc(/C=C/c2cccc(C(=O)O)c2)c(Cl)c1	–	100%	–	100%	–	36 mL/min/kg	–	–	–
CC(C)c1onc(CSc2nnnn2C)c1COc1ccc(/C=C/c2cccc(C(=O)O)c2)c(Cl)c1	–	45%	6.03	59%	–	–	–	5.68	–
CC(C)c1onc(CNc2c(Cl)cncc2Cl)c1COc1ccc(/C=C/c2cccc(C(=O)O)c2)c(Cl)c1	–	31%	6.40	68%	–	–	–	6.38	–
CC(C)c1onc(CCc2c(Cl)cccc2Cl)c1COc1ccc(/C=C/c2cccc(C(=O)O)c2)c(Cl)c1	–	104%	6.82	105%	–	–	–	7.32	–

Continued, values first:

pEC50 (Bile acid receptor [1])	%max [2]	pEC50 (Bile acid receptor [3])	%max [4]	Vd [5]	clearance [6]	half-life [7]	pEC50 (Bile acid receptor [8])	bioavailability [9]	Compound
7.09	71%	6.34	82%	–	–	–	–	–	CC(C)c1onc(COc2ccccc2Cl)c1COc1ccc(/C=C/c2cccc(C(=O)O)c2)c(Cl)c1
–	27%	6.03	65%	–	–	–	5.64	–	CC(C)c1onc(COc2ccc3ccccc3c2)c1COc1ccc(/C=C/c2cccc(C(=O)O)c2)c(Cl)c1
–	118%	7.77	110%	–	–	–	7.25	–	Cc1cccc(C)c1OCc1noc(C(C)C)c1COc1ccc(/C=C/c2cccc(C(=O)O)c2)c(Cl)c1
5.70	42%	6.51	51%	–	–	–	–	–	CC(C)c1onc(COc2cccc(Cl)c2)c1COc1ccc(/C=C/c2cccc(C(=O)O)c2)c(Cl)c1
–	111%	7.32	106%	–	–	–	6.82	–	Cc1cccc(Cl)c1OCc1noc(C(C)C)c1COc1ccc(/C=C/c2cccc(C(=O)O)c2)c(Cl)c1
–	68%	7.24	101%	–	–	–	6.70	–	CC(C)c1onc(COc2c(Cl)cc(Cl)cc2Cl)c1COc1ccc(/C=C/c2cccc(C(=O)O)c2)c(Cl)c1
–	120%	6.26	67%	–	–	–	6.64	–	CC(C)c1onc(Cc2ccccc2)c1COc1ccc(/C=C/c2cccc(C(=O)O)c2)c(Cl)c1
–	34%	6.02	79%	–	–	–	5.92	–	CC(C)c1onc(COc2cccc3ccccc23)c1COc1ccc(/C=C/c2cccc(C(=O)O)c2)c(Cl)c1
< 5.00	–	5.96	40%	–	–	–	–	–	CC(C)c1onc(COc2cc(Cl)cc(Cl)c2)c1COc1ccc(/C=C/c2cccc(C(=O)O)c2)c(Cl)c1
–	27%	5.96	55%	–	–	–	5.92	–	CC(C)c1onc(COc2ccccc2)c1COc1ccc(/C=C/c2cccc(C(=O)O)c2)c(Cl)c1
6.27	56%	7.06	112%	1.4 L/kg	15 mL/min/kg	2.33 h	–	1.9%	CC(C)c1onc(COc2c(Cl)cc(F)cc2Cl)c1COc1ccc(/C=C/c2cccc(C(=O)O)c2)c(Cl)c1
–	112%	5.66	100%	–	–	–	6.14	–	CC(C)c1onc(COc2c(F)cccc2F)c1COc1ccc(/C=C/c2cccc(C(=O)O)c2)c(Cl)c1
–	39%	6.21	72%	–	–	–	6.16	–	CC(C)c1onc(COc2ccc(Cl)cc2Cl)c1COc1ccc(/C=C/c2cccc(C(=O)O)c2)c(Cl)c1
–	53%	6.35	58%	–	–	–	5.89	–	CC(C)c1onc(COc2ccc(Cl)cc2)c1COc1ccc(/C=C/c2cccc(C(=O)O)c2)c(Cl)c1
–	66%	6.89	99%	–	–	–	6.96	–	Cc1cc(Cl)cc(C)c1OCc1noc(C(C)C)c1COc1ccc(/C=C/c2cccc(C(=O)O)c2)c(Cl)c1
–	121%	7.13	103%	–	–	–	6.54	–	CC(C)c1onc(COc2c(F)cccc2Cl)c1COc1ccc(/C=C/c2cccc(C(=O)O)c2)c(Cl)c1
–	89%	7.11	102%	1.2 L/kg	20 mL/min/kg	2.17 h	7.05	9.2%	CC(C)c1onc(COc2c(Cl)cccc2Cl)c1COc1ccc(/C=C/c2cccc(C(=O)O)c2)c(Cl)c1
–	95%	6.96	106%	–	–	–	6.52	–	CC(C)c1onc(COc2c(F)cc(F)cc2F)c1COc1ccc(/C=C/c2cccc(C(=O)O)c2)c(Cl)c1
–	38%	6.32	82%	–	–	–	6.20	–	CC(C)c1onc(COc2cccc(Cl)c2Cl)c1COc1ccc(/C=C/c2cccc(C(=O)O)c2)c(Cl)c1
–	37%	6.00	83%	–	–	–	6.05	–	CC(C)c1onc(COc2cc(Cl)ccc2Cl)c1COc1ccc(/C=C/c2cccc(C(=O)O)c2)c(Cl)c1
< 5.00	–	5.96	57%	–	–	–	–	–	CC(C)c1onc(COc2ccc(Cl)c(Cl)c2)c1COc1ccc(/C=C/c2cccc(C(=O)O)c2)c(Cl)c1
